Patent US11753408B2, “Compounds and method for blocking transmission of malarial parasite” (The United States of America, as represented by the …, priority 2016, dated 2023)

Legend:
[1] = tested on: Asexual parasites of P. falciparum strain 3D7; assay: In vitro drug activity on asexual parasites (SYBR Green assay); format: cell-based, Plasmodium falciparum
Method in brief: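 SYBR Green I fluorescence (ex 490, em 520 nm) was read after freeze-thaw lysis and 30 min staining at room temperature. Before that, drug-treated cultures (0.5% parasitemia, 2% hematocrit, DMSO ≤0.5%) were incubated 72 h, in duplicate.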

[2] = tested on: Stage III-V gametocytes (blood stage P. falciparum parasites); assay: In vitro drug activity on gametocytes (AlamarBlue viability assay); format: cell-based, Plasmodium falciparum; conditions: read-out: Gametocyte EC50
Method in brief: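 Viability was measured by AlamarBlue fluorescence (Ex 525/Em 598 nm) after 24 h dye incubation following 72 h compound exposure at 37° C, 5% CO2. Gametocytes, stage III–V from strains 3D7, HB3 and Dd2, were NAG/Percoll-enriched and plated at 20,000 cells/well.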

[3] = Microsomal stability (rat); format: in vitro ADME; conditions: rat microsomes
mTOR = mTOR (Homo sapiens, UniProt P42345); assay: mTOR activity (no method described); format: biochemical
Solubility at pH 7.4 = format: physicochemical
PAMPA permeability = format: in vitro ADME

SMILES | EC50 [1] [nM] | Microsomal Stability (rat) T1/2 [3] [min] | mTOR (mTOR) | Sol @ pH 7.4 (Solubility at pH 7.4) [ug/mL] | PAMPA Permeability (PAMPA permeability) [×10⁻⁶ cm/s] | EC50 [2] [nM]
O=C(c1ccc(-n2c(=O)ccc3cnc4ccc(-c5ccc(Cl)cc5)cc4c32)cc1Cl)N1CCOCC1 [Compound 116] | 22 | <1.0 | 454.6 nM | <1.0 | 383 | 65
NCc1cccc(-c2ccc3ncc4ccc(=O)n(-c5ccc(C(=O)N6CCOCC6)cc5)c4c3c2)c1 [Compound 180] | 931 | >30 | 2454 nM | 43.7 | 3.8 | 1820
O=C(NC1CC1c1ccccc1)c1ccc(-n2c(=O)ccc3cnc4ccc(-c5ccc(Cl)cc5)cc4c32)cc1 (stereo not drawn) [Compound 158] | 1560 | 18.8 | 7899 nM | <1.0 | < 2.4 | 3560
O=Cc1ccc(-c2ccc3ncc4ccc(=O)n(-c5ccc(C(=O)N6CCOCC6)cc5)c4c3c2)cn1 [Compound 171] | 47.5 | 2.8 | 154.3 nM | >72.0 | 31.3 | 240
CC(O)c1ccc(-c2ccc3ncc4c(c3c2)n(-c2cccc(C#N)c2)c(=O)n4C)cc1 (stereo not drawn) [Compound 443] | 44.5 | >30.0 | 302.4 nM | 3.3 | 645 | 68.3
CN(C)Cc1ccc(-c2ccc3ncc4ccc(=O)n(-c5ccc(C(=O)N(CCO)CCO)cc5)c4c3c2)cc1 [Compound 160] | 96.1 | >30.0 | 9278 nM | >79.0 | < 1 | 270
O=C(NC1CCCC1)c1ccc(-n2c(=O)ccc3cnc4ccc(-c5ccc(Cl)cc5)cc4c32)cc1 [Compound 156] | 687 | 5.6 | 67630 nM | <1.0 | < 1 | 1580
Cc1cc(-c2ccc3ncc4ccc(=O)n(-c5ccc(C(=O)N6CCOCC6)cc5)c4c3c2)ccc1Cl [Compound 144] | 368 | 4.1 | 2083 nM | <1.0 | 1470 | 1760
O=C(c1ccc(-n2c(=O)ccc3cnc4ccc(-c5ccc(Cl)cc5)cc4c32)cc1)N1CC2CCC(C1)O2 [Compound 138] | 173 | 4.8 | 1278 nM | <1.0 | 891 | 277
O=C(c1ccc(-n2c(=O)ccc3cnc4ccc(-c5ccc(Cl)cc5O)cc4c32)cc1)N1CCOCC1 [Compound 134] | 72.7 | 10.5 | 2007 nM | <1.0 | 142 | 256
CNC(=O)c1ccc(-n2c(=O)ccc3cnc4ccc(-c5ccc(Cl)cc5)cc4c32)cc1Cl [Compound 115] | 8.14 | 9 | 229.4 nM | <1.0 | < 1 | 6.21
N#Cc1cccc(-n2c(=O)n(CCO)c3cnc4ccc(-c5ccc(Cl)cc5)cc4c32)c1 [Compound 404] | 681 | >30.0 | 50000 nM | 0.9 | 19.5 | 1640
NCCc1ccc(-c2ccc3ncc4ccc(=O)n(-c5ccc(C(=O)N6CCOCC6)cc5)c4c3c2)cc1 [Compound 183] | 49.8 | >30 | 794.5 nM | 28.4 | < 1 | 131
NC1(c2ccc(-c3ccc4ncc5ccc(=O)n(-c6ccc(C(=O)N7CCOCC7)cc6)c5c4c3)cc2)CCC1 [Compound 181] | 1580 | >30 | 830.4 nM | 17.3 | 36.3 | 1920
N#Cc1cc(-c2ccc3ncc4ccc(=O)n(-c5ccc(C(=O)N6CCOCC6)cc5)c4c3c2)ccc1Cl [Compound 153] | 127 | 9.4 | 18360 nM | <1.0 | 57.9 | 52.9
Cn1c(=O)n(-c2cccc(C#N)c2)c2c3cc(-c4ccc(Cl)c(O)c4)ccc3ncc21 [Compound 441] | 319 | >30.0 | 516.2 nM | <1.0 | < 1 | 686
Cn1c(=O)n(-c2cccc(C#N)c2)c2c3cc(-c4ccc(N)cc4)ccc3ncc21 [Compound 439] | 37.9 | >30.0 | 714.1 nM | 1.4 | 18.4 | 844

Second part, led by results:

EC50 [1] [nM] | Microsomal Stability (rat) T1/2 [3] [min] | mTOR (mTOR) | Sol @ pH 7.4 (Solubility at pH 7.4) [ug/mL] | PAMPA Permeability (PAMPA permeability) [×10⁻⁶ cm/s] | SMILES | EC50 [2] [nM]
174 | 27.2 | 100000 nM | <1.0 | < 1 | Cc1ccc(-c2ccc3ncc4c(c3c2)n(-c2cccc(C#N)c2)c(=O)n4C)cc1 [Compound 438] | 169
215 | 1.4 | 2680 nM | <1.0 | 389 | O=C(c1ccc(-n2c(=O)ccc3cnc4ccc(-c5ccc(Cl)cc5)cc4c32)cc1)N1CCCCC1 [Compound 104] | 194
4000 | >30.0 | inactive | <1.0 | < 5.4 | N#Cc1cc(NC(=O)c2ccc(-n3c(=O)ccc4cnc5ccc(-c6ccc(Cl)cc6)cc5c43)cc2)ccc1F [Compound 133] | 10100
934 | >30.0 | 50000 nM | >80.0 | 1.8 | CN(C)Cc1ccc(-c2ccc3ncc4ccc(=O)n(-c5ccc(C(=O)N6CC7CC6CN7C)cc5)c4c3c2)cc1 (stereo not drawn) [Compound 165] | 4090
133 | >30.00 | 7636 nM | >68.00 | 49.9 | CNC(=O)c1ccc(-n2c(=O)ccc3cnc4ccc(-c5ccc(CN(C)C)cc5)cc4c32)cc1 [Compound 174] | 265
177 | >30.0 | 3776 nM | 61.6 | 459 | CN(C)Cc1ccc(-c2ccc3ncc4ccc(=O)n(-c5ccc(C(=O)N6CCOCC6)cc5)c4c3c2)cc1 [Compound 86] | 212
24.4 | >30.0 | 241.1 nM | 2.6 | 33.1 | O=C(NC1CC1)c1ccc(-n2c(=O)ccc3cnc4ccc(-c5ccc(Cl)cc5)cc4c32)cc1 [Compound 87] | 139
4810 | 3.1 | 21220 nM | >90.0 | 109 | O=C(c1ccc(-n2c(=O)ccc3cnc4ccc(-c5ccc(Cl)c(C(=O)N6CCOCC6)c5)cc4c32)cc1)N1CCOCC1 [Compound 147] | 18300
106 | 12.8 | 427.8 nM | <1.0 | 407 | Cn1c(=O)n(-c2cccc(C#N)c2)c2c3cc(-c4cccc(O)c4)ccc3ncc21 [Compound 444] | 280
61.4 | <1.0 | 1165 nM | <1.0 | 119 | O=C(c1ccc(-n2c(=O)ccc3cnc4ccc(-c5ccc(Cl)cc5)cc4c32)cc1)N1CCC1 [Compound 108] | 59.1
451 | 19.4 | 100000 nM | <1 | < 1 | Cc1cc(=O)n(-c2ccc(C(=O)NC3CC3)cc2)c2c1cnc1ccc(-c3ccc(Cl)cc3)cc12 [Compound 179] | 1700
8.21 | >30.0 | 88.72 nM | 30 | 14.9 | Nc1ccc(-c2ccc3ncc4ccc(=O)n(-c5ccc(C(=O)N6CCOCC6)cc5)c4c3c2)cn1 [Compound 334] | 19.7
140 | >30.0 | 53210 nM | 1.9 | 223 | Cn1c(=O)n(-c2cccc(C#N)c2)c2c3cc(-c4ccc(F)cc4)ccc3ncc21 [Compound 402] | 343
